Test results taken from patent US11800868B2, “Isoflavonoid compounds and use thereof” (Novozymes BioAg A/S, priority 2004, dated 2023).

Legend:
potato = experiment: Growth promotion of potato tubers with signals, field; assay type: in vivo
Description: Notes: • 1. Microtubers (cv. Bintje, tuber size from 0.5-0.7 g) were soaked in each test solution overnight at 25° C. in the incubator. Treatment rate was 50 ml/treatment, and 50 ml water as control. • 2. […] Treated potato tubers were planted in soil 10-15 cm deep, 10 tubers in 10 M^2 plot and supplied 500 ml of water to each tuber in ground after planting. • 4. Planted date: Aug. 20, 2004 and harvested date: Oct. 15, 2004.

tomato = experiment: Signal applied to tomato seedling roots transplanted into soil inoculated with soybean rhizobia (field)

Compound: O=c1c(-c2ccc(O)cc2)coc2cc(O)cc(O)c12 [genistein]
- tuber size (potato; 300-500 μM): larger tuber size
- potato tuber yield increase over control (potato; microtubers soaked in 300 μM solution overnight): up to 17.7%
- Fruit/plot (tomato; 100 ml at 1 μM/plant, Early): 67.75
- Fruit/plot % vs ctrl (tomato; 100 ml at 1 μM/plant, Early): 16.81%
- Kg/plot (tomato; 100 ml at 1 μM/plant, Early): 12.02 Kg/plot
- Kg/plot % vs ctrl (tomato; 100 ml at 1 μM/plant, Early): 15.47%
- Fruit/plot (tomato; 100 ml at 1 μM/plant, Normal): 241.5
- Fruit/plot % vs ctrl (tomato; 100 ml at 1 μM/plant, Normal): 10.27%
- Kg/plot (tomato; 100 ml at 1 μM/plant, Normal): 27.10 Kg/plot
- Kg/plot % vs ctrl (tomato; 100 ml at 1 μM/plant, Normal): 5.86%
- Fruit/plot (tomato; 100 ml at 10 μM/plant, Early): 66.25
- Fruit/plot % vs ctrl (tomato; 100 ml at 10 μM/plant, Early): 14.22%
- Kg/plot (tomato; 100 ml at 10 μM/plant, Early): 11.64 Kg/plot
- Kg/plot % vs ctrl (tomato; 100 ml at 10 μM/plant, Early): 11.82%
- Fruit/plot (tomato; 100 ml at 10 μM/plant, Normal): 217.75
- Fruit/plot % vs ctrl (tomato; 100 ml at 10 μM/plant, Normal): −0.57%
- Kg/plot (tomato; 100 ml at 10 μM/plant, Normal): 25.91 Kg/plot
- Kg/plot % vs ctrl (tomato; 100 ml at 10 μM/plant, Normal): 1.21%
- Fruit/plot (tomato; 100 ml at 50 μM/plant, Early): 71
- Fruit/plot % vs ctrl (tomato; 100 ml at 50 μM/plant, Early): 22.41%
- Kg/plot (tomato; 100 ml at 50 μM/plant, Early): 12.85 Kg/plot
- Kg/plot % vs ctrl (tomato; 100 ml at 50 μM/plant, Early): 23.44%
- Fruit/plot (tomato; 100 ml at 50 μM/plant, Normal): 198.5
- Fruit/plot % vs ctrl (tomato; 100 ml at 50 μM/plant, Normal): −9.36%
- Kg/plot (tomato; 100 ml at 50 μM/plant, Normal): 25.77 Kg/plot
- Kg/plot % vs ctrl (tomato; 100 ml at 50 μM/plant, Normal): 0.66%
